Values quoted from earlier work, collected in paper PMC10687071 (The Journal of Biological Chemistry, 2023).

Tests used:
[1] = tested on: PAS domains of EAG channels; parameters: method as in PMID 31315662, PMID 32047112; details: cited from earlier work
[2] = tested on: PAS domains of ERG3 channels; parameters: method as in PMID 32723862; details: cited from earlier work

Structure (SMILES) | Binding to PAS domains of EAG channels [1] | Binding to PAS domains of ERG3 channels [2]
CN(C)CCCN1c2ccccc2Sc2ccc(Cl)cc21 [chlorpromazine] | bind | –
C=CC1=C(C)c2cc3[n-]c(cc4[n-]c(cc5nc(cc1n2)C(C)=C5C=C)c(C)c4CCC(=O)O)c(CCC(=O)O)c3C.[Fe+2] [heme] | – | bind
C=CCCCCCCCCC(=O)O [undecylenic acid] | bind | –
